Data taken from patent US12187662B2, “FOXM1 inhibitor compositions and methods of using the same” (The Board of Trustees of the University of Illinois, priority 2018, dated 2025).
Entries after “also recorded” stand apart in the source; their conditions may differ. Where two headings read alike, the source gives them in different places.

Legend:
MDA-MB-231 cells = experiment: Cell proliferation assay (WST-1), MDA-MB-231; assay type: cell-based, human; details: inhibition of cell proliferation, read-out: IC50 MDA-MB-231
Method: (§1) All cells were tested for mycoplasma using Real-Time PCR Mycoplasma Detection Kit (Akron Biotech, Boca Raton, FL).
(§2) All assays were performed in triplicate.

FOXM1 protein = target: T1, FOXM1 protein (Homo sapiens, UniProt Q08050); experiment: Competitive binding of inhibitors to FOXM1 by tr-FRET (Fl-NB-72 probe); details: tr-FRET competition with Fl-NB-72; Ki calculated from IC50 (Cheng-Prusoff)
T1 construct: a terbium donor was attached to purified full length FOXM1 through a streptavidin-biotin linker
T1 sequence (Q08050 1-763): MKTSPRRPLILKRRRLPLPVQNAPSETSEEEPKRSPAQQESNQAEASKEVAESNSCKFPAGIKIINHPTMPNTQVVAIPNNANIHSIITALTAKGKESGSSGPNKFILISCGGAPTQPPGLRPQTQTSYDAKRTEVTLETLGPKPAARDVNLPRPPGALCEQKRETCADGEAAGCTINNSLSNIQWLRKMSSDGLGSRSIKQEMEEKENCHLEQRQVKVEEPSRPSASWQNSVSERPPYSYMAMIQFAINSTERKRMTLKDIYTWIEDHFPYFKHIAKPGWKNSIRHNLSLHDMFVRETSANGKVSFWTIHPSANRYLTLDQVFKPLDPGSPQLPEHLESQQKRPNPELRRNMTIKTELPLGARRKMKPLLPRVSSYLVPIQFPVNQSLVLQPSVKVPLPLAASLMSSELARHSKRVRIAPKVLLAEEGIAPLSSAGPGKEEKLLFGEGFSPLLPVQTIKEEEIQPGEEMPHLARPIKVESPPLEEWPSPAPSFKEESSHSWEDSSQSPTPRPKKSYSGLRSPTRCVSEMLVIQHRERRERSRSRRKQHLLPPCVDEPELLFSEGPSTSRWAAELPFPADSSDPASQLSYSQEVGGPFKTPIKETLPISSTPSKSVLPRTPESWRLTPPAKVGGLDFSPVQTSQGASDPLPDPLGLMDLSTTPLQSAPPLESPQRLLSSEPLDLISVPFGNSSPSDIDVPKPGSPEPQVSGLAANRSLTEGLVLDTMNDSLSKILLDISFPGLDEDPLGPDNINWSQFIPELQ
Method: Competitive binding assays of FOXM1 inhibitor binding to FOXM1 by tr-FRET were conducted. All tr-FRET experiments used FRET buffer (20 mM Tris, pH 7.5, 50 mM NaCl, 0.01% NP-40 detergent, 10% glycerol) with 0.3 mg/ml ovalbumin and 0.1 mM butylated hydroxy-anisole added fresh daily. Solutions of the protein, fluorescent probe and inhibitor dilutions were prepared at 3× the final concentrations, the final dilution taking place as they were mixed together on the microtiter plate.
Final concentrations were 10^-5M to 10^-9M, with the last point being buffer only, no inhibitor. Fluorescein-NB-72 (Fl-NB-72) was prepared at 1 mM in DMF and stored at −20° C. It was diluted into plain FRET buffer to give 100 nM in the assay.
Incubations were done in duplicate on black Molecular Devices 96-well microtiter plates. […] To this were added 5 μL of the inhibitor dilutions, mixed and incubated, in the dark, at room temperature, for 1 h. […] Diffusion-enhanced FRET was determined by a parallel incubation without biotin-FOXM1 and subtracted as a background signal. Graphs were prepared using Graph Pad/Prism 4.

FOXM1 and ERα = experiment: Cellular level of FOXM1 and ERα (Western blot, mRNA); assay type: cell-based, human; details: Western blot over time
Method: In-cell Western and Western blot assays Cells were cultured in 96-well plates at 3000 cells/well, and treated with compounds for the times indicated. Cells were washed twice in PBS, fixed with 4% formaldehyde (Fisher Scientific) solution in PBS, permeabilized in 0.1% Triton X-100 in PBS, blocked with Odyssey Blocking Buffer (LI-COR), and incubated with FOXM1 antibody (GeneTex, 102170) rabbit HC-20 ERa antibody (Santa Cruz, Cat #SC-543) or mouse F10 ERa antibody (Santa Cruz, Cat #SC8002) at 4 C overnight. Both IRDye 800 CW goat anti-rabbit secondary antibody (LI-COR, Cat #926-32211) and Cell Tag 700 (LI-COR, Cat #926-41090) were diluted (1:600) for incubation with cells. Plates were washed and staining signals were quantified and normalized with Cell Tag signals (to control for any differences in cell number per well) using LI-COR Odyssey infrared imaging system. Fold changes in protein levels were calculated relative to the vehicle treated WT samples. Results are the average±SD from at least three independent experiments, each performed with 4 wells per treatment condition. […]
RNA isolation and real-time PCR Total RNA was isolated using TRIzol (Invitrogen) and reverse transcribed using […] reverse transcriptase (New England BioLabs). […] Relative mRNA levels of genes were normalized to the housekeeping gene 36B4, and fold change calculated relative to the vehicle treated samples. […]

DT22 cells = experiment: Cell proliferation assay (WST-1), DT22; assay type: cell-based, human
Method: as §1, §2

breast cancer cell lines = experiment: Proliferation of breast cancer cell lines (panel, line not specified); assay type: cell-based, human; details: for IC50: read-out: IC50 for inhibition of proliferation of breast cancer cell lines
Method: as §1, §2

MCF7 cells = experiment: Cell proliferation assay (WST-1), MCF7; assay type: cell-based, human; details: for IC50: read-out: IC50 MCF7
Method: as §1, §2

[1] = Pharmacokinetic studies in mice after single s.c. or oral dose; details: for half-life / AUC(0-t): female, CD-1, mouse, plasma
Method: For s.c. injection, each compound was dissolved in DMSO and then mixed with corn oil for a total injection volume of 100 μL (10% DSMO+90% corn oil) per mouse. For oral gavage, compounds were administered in a 200 μL formulation of 9/0.5/0.5/90 parts of PEG400/Tween80/Povidone/0.5% Carboxymethylcellulose. […] Compounds were quantified by LC-MS/MS at the University of Illinois Metabolomics Core Facility. The data were fitted to a non-compartment model.

[2] = after IV administration; cited from earlier work
[3] = tested on: DT22 triple negative human breast tumor xenografts; experiment: DT22 triple negative breast tumor xenografts in NSG mice; assay type: in vivo, mouse; details: for Tumor growth in vivo, low doses: 5 or 10 mg/kg s.c. every second or third day
Method: In vivo breast cancer xenograft studies For examination of the growth of triple-negative DT22 breast tumors, intact female NOD/SCID-gamma (NSG) mice were used. DT-22 cells (1×10^6 cells/mouse) were injected s.c. into the right axial mammary gland. Mice received s.c. injection or oral gavage daily or every second or third day, as indicated, with vehicle or FOXM1 inhibitor compound, and tumor growth was monitored over time.

[4] = tested on: tamoxifen-resistant MCF7 breast cancer cells; experiment: Proliferation of tamoxifen-resistant MCF7 cells; assay type: cell-based, human; details: 6 days
Method: Values are mean±SD of three separate assays. Cell proliferation assay WST-1 assay (Roche, Basel, Switzerland) was used to quantify cell viability as described (Gong et al., Mol. Cell Endocrinol., 2016, 437:190-200). Absorbance was measured at 450 nm using a VICTOR X5 PerkinElmer 2030 Multilabel Plate Reader. All assays were performed in triplicate.

[5] = cell line not specified or several lines
[6] = Homo sapiens, DT-22, inhibition of cell proliferation
[7] = Homo sapiens, MCF7, inhibition of cell proliferation
[8] = mice, oral, doses of FIGS. 6A-6B
[9] = mice, s.c., doses of FIGS. 6A-6B

In the case of Nc1c(C(=O)Nc2ccc(F)cc2)sc2nc(-c3cccs3)cc(C(F)(F)F)c12 [FDI-6, reference compound], the IC50 (MDA-MB-231 cells) is reported as 4.5 µM, the Ki (FOXM1 protein) is reported as 0.143 µM and the “Cellular FOXM1 and ERα proteins” value (FOXM1 and ERα) is reported as “downregulated”. It also gave an IC50 (DT22 cells; inhibition of cell proliferation, read-out: IC50 DT-22) of 4.8 µM, an IC50 (breast cancer cell lines; [5]) of 8 µM and an IC50 (MCF7 cells; inhibition of cell proliferation) of 3.1 µM. For the same compound, the “Blood levels after s.c. administration” value ([1]; mice, 20 mg/kg s.c.) was “very low blood levels”, the “Blood levels after oral administration” value ([1]; mice, 40 mg/kg oral, 40 mg/kg) was “undetectable” and the “Blood levels after oral administration” value ([1]; mice, 40 mg/kg oral, listed as FDI 6, 40 mg/kg) was “not detectable”.
In the case of CCN(CC)c1ccc(C(c2ccc(N(CC)CC)cc2)=c2ccc3c(c2)CCc2ccccc2[N+]=3CCCN(C)C)cc1 [Imipramine Blue], the “half-life t1/2” value [2] is given as 0.183 h.
Compound CCN(CC)CCCCCCOc1ccc(C(c2ccc(OCCCCCCN(CC)CC)cc2)=C2[C@H]3C[C@@H]4C[C@@H](C[C@H]2C4)C3)cc1 [NB-51, 6,6′-(((((5r,7r)-adamantan-2-ylidene)methylene)bis(4,1-phenylene))bis(oxy))bis(N,N-diethylhexan-1-amine)] has a Ki (FOXM1 protein) of 0.13 µM, an IC50 (DT22 cells; [6]) of 1.5 µM and an IC50 (MCF7 cells; [7]) of 0.7 µM. For the same compound, the “Improvement in anti-proliferative activity versus monoamine NB-54” value (MCF7 cells; MCF-7 cells) was about 5 fold, the half-life ([1]; po, 20 mg/kg) was 20.1 h and the AUC(0-t) ([1]; po, 20 mg/kg, PK p.o. AUC0-48, mice, 20 mg/kg p.o. (footnote *)) was 1.8 µM·h. For the same compound, the AUC(0-t) ([1]; sc, 20 mg/kg, PK s.c. AUC0-48, mice, 20 mg/kg s.c. (footnote *)) was 4.7 µM·h.
Compound C[N+]1(CCCCCCOc2ccc(C(c3ccc(Cl)cc3)=C3C4C[C@H]5C[C@@H](C4)C[C@H]3C5)cc2)CCCC1 [NB-63] has a Ki (FOXM1 protein) of 0.076 µM, an IC50 (DT22 cells; [6]) of 6 µM and an IC50 (MCF7 cells; [7]) of 5.5 µM. The half-life ([1]; sc) was 25 to 40 h, the AUC(0-t) ([1]; sc, 40 mg/kg, PK s.c. AUC0-48, mice, 40 mg/kg s.c.) was 160 µM·h and the “PK p.o. AUC0-48” value ([1]; mice, 40 mg/kg p.o.) was “too low to measure”. For the same compound, the “Blood levels after oral administration” value [1, 8] was “very low levels”, the “AUC after s.c. administration relative to NB-55” value ([1]; mice, s.c.) was “approximately 3 fold” and the “Blood levels after s.c. injection” value [1, 9] was “very high blood levels”. The “Tumor growth in vivo, low doses” value [3] was “greatly suppress tumor growth”, the “Growth of DT22-Luc xenograft tumors, low doses” value ([3]; NB-115 s.c. daily 2 or 6 mg/kg, NB-63 s.c. daily 20 mg/kg until day 20, then 10 mg/kg every other day) was “suppress the growth; also recorded: effective in suppressing the growth” and the Animal body weight ([3]; same low-dose regimens as tumor study (FIG. 14B)) was “do not affect; also recorded: little impact”.
In the case of c1cc(C(=C2C3CC4CC(C3)CC2C4)c2ccc(OCCCCCCN3CCCC3)cc2)ccc1OCCCCCCN1CCCC1 [NB-65, 1,1′-((((((5r,7r)-adamantan-2-ylidene)methylene)bis(4,1-phenylene))bis(oxy))bis(hexane-6,1-diyl))dipyrrolidine], the Ki (FOXM1 protein) is reported as 0.19 µM, the IC50 (DT22 cells; [6]) is reported as 1 µM and the “IC50 for inhibition of proliferation of breast cancer cell lines” value (breast cancer cell lines; [5]) is reported as “submicromolar”. The IC50 (MCF7 cells; [7]) was 0.8 µM.
Work on C[N+]1(CCCCCCOc2ccc(C(=C3C4CC5CC(C4)CC3C5)c3ccc(OCCCCCC[N+]4(C)CCCC4)cc3)cc2)CCCC1 [NB-68, 1,1′-((((((5r,7r)-adamantan-2-ylidene)methylene)bis(4,1-phenylene))bis(oxy))bis(hexane-6,1-diyl))bis(1-methylpyrrolidin-1-ium) diiodide] yielded an IC50 (MDA-MB-231 cells; Homo sapiens, MDA-MB-231) of 1.7 µM, a Ki (FOXM1 protein) of 0.051 µM and an IC50 (DT22 cells; [6]) of 0.7 µM. For the same compound, the IC50 (MCF7 cells; [7]) was 0.8 µM, the half-life ([1]; po, 60 mg/kg) was 18.5 h and the AUC(0-t) ([1]; po, 60 mg/kg, PK p.o. AUC0-48, mice, 60 mg/kg p.o.) was 0.18 µM·h. It also gave a half-life ([1]; sc) of 25 to 40 h, a half-life ([1]; sc, 60 mg/kg) of 109 h and an AUC(0-t) ([1]; sc, 60 mg/kg, PK s.c. AUC0-48, mice, 60 mg/kg s.c.) of 289 µM·h. The “Blood levels after oral administration” value [1, 8] was “very low levels”, the “Blood levels after s.c. injection” value [1, 9] was “very high blood levels” and the “Tumor growth in vivo, low doses” value [3] was “greatly suppress tumor growth”. For the same compound, the “Growth of DT22 tumor xenografts” value ([3]; s.c., 20 mg/kg every other day for first 10 days then 10 mg/kg every other day) was “greatly suppress tumor growth”.
In the case of C=C(NC(=O)C(=C)NC(=O)c1csc(C2=N[C@@H]3c4csc(n4)[C@H]4NC(=O)c5csc(n5)[C@H]([C@](C)(O)[C@@H](C)O)NC(=O)[C@H]5CSC(=N5)/C(=C/C)NC(=O)[C@H]([C@@H](C)O)NC(=O)c5csc(n5)[C@]3(CC2)NC(=O)[C@H](C)NC(=O)C(=C)NC(=O)[C@H](C)NC(=O)[C@H]([C@@H](C)CC)N[C@@H]2C=Cc3c([C@H](C)O)cc(nc3[C@H]2O)C(=O)O[C@@H]4C)n1)C(N)=O [thiostrepton, reference compound], the “Cellular FOXM1 and ERα proteins” value (FOXM1 and ERα) is reported as “downregulated”, the IC50 (DT22 cells; [6]) is reported as 3.6 µM and the IC50 (breast cancer cell lines; Homo sapiens) is reported as 2 µM. It also gave an IC50 (MCF7 cells; [7]) of 1.4 µM.
For CC/C(=C(\c1ccc(O)cc1)c1ccc(OCCN(C)C)cc1)c1ccccc1 [trans-hydroxytamoxifen, reference compound], the “Effect on proliferation of tamoxifen-resistant MCF7 cells” value [4] was “weakly stimulated”.
